Assay results taken from ChEMBL document CHEMBL1201862, “PubChem BioAssay data set” (2004).
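All cell lines were grown in 96-well plates and treated with compound for 48 hours. GI50: concentration for 50% inhibition of growth.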 Calls of active or inactive are those of the source. Rule as the data show it: active = GI50 up to about 1.1 µM and inactive = higher.

What was measured:
Assay in all cases: growth of human tumour cells (NCI), 48 h
[1] = tested on: HT-29
[2] = tested on: RPMI-8226
[3] = tested on: EKVX
[4] = tested on: CCRF-CEM
[5] = tested on: RXF 393
[6] = tested on: MOLT-4
[7] = tested on: DMS-114
[8] = tested on: OVCAR-3
[9] = tested on: HCT-116
[10] = tested on: SF-539
[11] = tested on: UO-31
[12] = tested on: SNB-19
[13] = tested on: OVCAR-5
[14] = tested on: NCI-H460
[15] = tested on: SK-MEL-28
[16] = tested on: HCC 2998
[17] = tested on: NCI-H23
[18] = tested on: U-251
[19] = tested on: A549
[20] = tested on: HOP-92

| SMILES | GI50 [1] | GI50 [2] | GI50 [3] | GI50 [4] | GI50 [5] | GI50 [6] | GI50 [7] | GI50 [8] | GI50 [9] | GI50 [10] | GI50 [11] | GI50 [12] | GI50 [13] | GI50 [14] | GI50 [15] | GI50 [16] | GI50 [17] | GI50 [18] | GI50 [19] | GI50 [20] |
| --- | --- | --- | --- | --- | --- | --- | --- | --- | --- | --- | --- | --- | --- | --- | --- | --- | --- | --- | --- | --- |
| CCN(CC)C(=O)c1cc(OC(C)C)ccc1-c1c(C)cc(OC(C)C)c(OC)c1OC | 38 µM (inactive) | 24.2 µM (inactive) | 60.7 µM (inactive) | 34 µM (inactive) | 43 µM (inactive) | 25.5 µM (inactive) | 36.5 µM (inactive) | 71 µM (inactive) | 38.2 µM (inactive) | 92 µM (inactive) | 86.3 µM (inactive) | 79.1 µM (inactive) | > 100 µM (inactive) | 36.1 µM (inactive) | > 100 µM (inactive) | 46.3 µM (inactive) | 60 µM (inactive) | 63 µM (inactive) | 48.6 µM (inactive) | – |
| Cc1ccc(CCC(=O)C(=O)O)s1 | > 100 µM (inactive) | > 100 µM (inactive) | > 100 µM (inactive) | > 100 µM (inactive) | – | > 100 µM (inactive) | > 100 µM (inactive) | > 100 µM (inactive) | 41 µM (inactive) | > 100 µM (inactive) | > 100 µM (inactive) | > 100 µM (inactive) | > 100 µM (inactive) | > 100 µM (inactive) | > 100 µM (inactive) | > 100 µM (inactive) | > 100 µM (inactive) | 81.7 µM (inactive) | > 100 µM (inactive) | > 100 µM (inactive) |
| CCCS(=O)(=O)O | > 100 µM (inactive) | > 100 µM (inactive) | > 100 µM (inactive) | > 100 µM (inactive) | > 100 µM (inactive) | > 100 µM (inactive) | – | > 100 µM (inactive) | – | > 100 µM (inactive) | > 100 µM (inactive) | > 100 µM (inactive) | > 100 µM (inactive) | > 100 µM (inactive) | > 100 µM (inactive) | – | > 100 µM (inactive) | > 100 µM (inactive) | > 100 µM (inactive) | > 100 µM (inactive) |
| O=C(NC1C/C(=N/O)c2c(Br)sc(Br)c21)C(F)(F)F (centres undefined) | 26.9 µM (inactive) | – | 27 µM (inactive) | 20.2 µM (inactive) | 11.3 µM (inactive) | 26.3 µM (inactive) | – | 35.8 µM (inactive) | 17.1 µM (inactive) | 17.3 µM (inactive) | 13.7 µM (inactive) | 41.7 µM (inactive) | > 100 µM (inactive) | 25.4 µM (inactive) | – | 22.6 µM (inactive) | 16 µM (inactive) | 16.7 µM (inactive) | 20 µM (inactive) | 3.65 µM (inactive) |
| CC(SC(=S)N1CCOCC1)C(=O)Nc1nnc(-c2ccc(Cl)cc2)o1 (centres undefined) | 36.9 µM (inactive) | 23.2 µM (inactive) | – | < 0.01 µM (active) | > 100 µM (inactive) | 16.1 µM (inactive) | – | 25.8 µM (inactive) | 23.8 µM (inactive) | 74.5 µM (inactive) | 22.4 µM (inactive) | 40 µM (inactive) | 48.6 µM (inactive) | 35.2 µM (inactive) | > 100 µM (inactive) | > 100 µM (inactive) | 50.2 µM (inactive) | 35 µM (inactive) | 34.5 µM (inactive) | > 100 µM (inactive) |
| Cc1nnc(Nc2ccc(Cl)cc2)o1 | > 10 µM (inactive) | – | > 10 µM (inactive) | > 10 µM (inactive) | > 10 µM (inactive) | – | – | > 10 µM (inactive) | > 10 µM (inactive) | > 10 µM (inactive) | > 10 µM (inactive) | > 10 µM (inactive) | – | > 10 µM (inactive) | > 10 µM (inactive) | > 10 µM (inactive) | > 10 µM (inactive) | > 10 µM (inactive) | > 10 µM (inactive) | – |
| C=CC(=O)NC(O)(C(=O)OCC)C(F)(F)F (centres undefined) | > 100 µM (inactive) | > 100 µM (inactive) | > 100 µM (inactive) | > 100 µM (inactive) | > 100 µM (inactive) | > 100 µM (inactive) | – | > 100 µM (inactive) | > 100 µM (inactive) | > 100 µM (inactive) | > 100 µM (inactive) | > 100 µM (inactive) | > 100 µM (inactive) | – | > 100 µM (inactive) | > 100 µM (inactive) | > 100 µM (inactive) | > 100 µM (inactive) | > 100 µM (inactive) | > 100 µM (inactive) |
| O=c1ccc2cc3ccc4cccc5ccc(c2o1)c3c45 | 22.2 µM (inactive) | > 100 µM (inactive) | > 100 µM (inactive) | > 100 µM (inactive) | – | > 100 µM (inactive) | 33 µM (inactive) | > 10 µM (inactive) | – | 9.64 µM (inactive) | 14.3 µM (inactive) | 37.3 µM (inactive) | – | 13.1 µM (inactive) | > 100 µM (inactive) | – | 67.8 µM (inactive) | 13.1 µM (inactive) | – | 5.24 µM (inactive) |
| CO[C@H]1C=C[C@@]23c4cc5c(cc4CO[C@]2(O)CN(C)[C@H]3C1)OCO5 | > 100 µM (inactive) | > 100 µM (inactive) | > 100 µM (inactive) | > 100 µM (inactive) | – | > 100 µM (inactive) | – | > 100 µM (inactive) | > 100 µM (inactive) | > 100 µM (inactive) | > 100 µM (inactive) | > 100 µM (inactive) | > 100 µM (inactive) | > 100 µM (inactive) | > 100 µM (inactive) | > 100 µM (inactive) | > 100 µM (inactive) | > 100 µM (inactive) | > 100 µM (inactive) | > 100 µM (inactive) |
| COc1cc([C@@H]2c3cc4c(cc3[C@@H](c3c(O)cc(O)c5c3O[C@H](c3ccc(O)c(O)c3)[C@@H](O)C5)[C@H]3COC(=O)[C@H]23)OCO4)cc(OC)c1O | > 100 µM (inactive) | 53 µM (inactive) | > 100 µM (inactive) | 63.2 µM (inactive) | > 100 µM (inactive) | 44 µM (inactive) | – | > 100 µM (inactive) | 72.8 µM (inactive) | 58.7 µM (inactive) | – | > 100 µM (inactive) | > 100 µM (inactive) | > 100 µM (inactive) | 89.1 µM (inactive) | > 100 µM (inactive) | > 100 µM (inactive) | > 100 µM (inactive) | > 100 µM (inactive) | > 100 µM (inactive) |
| Cc1ccc(NC(=S)NNC(=O)c2cc(-c3ccccc3)nc3ccccc23)cc1C | 23.7 µM (inactive) | 24.3 µM (inactive) | – | 27.5 µM (inactive) | 27 µM (inactive) | 20.8 µM (inactive) | – | – | 18.6 µM (inactive) | 21.2 µM (inactive) | 17.9 µM (inactive) | 32 µM (inactive) | 26.8 µM (inactive) | 19.5 µM (inactive) | 25.8 µM (inactive) | 18.8 µM (inactive) | 19.3 µM (inactive) | 19.5 µM (inactive) | 20.5 µM (inactive) | 18.6 µM (inactive) |
| CC(C)OP(=O)(OC(C)C)c1nn(-c2ccc([N+](=O)[O-])cc2)c(=N)s1 | > 100 µM (inactive) | > 100 µM (inactive) | > 100 µM (inactive) | > 100 µM (inactive) | – | 75.9 µM (inactive) | 56.9 µM (inactive) | 77.8 µM (inactive) | > 100 µM (inactive) | > 100 µM (inactive) | 60.4 µM (inactive) | > 100 µM (inactive) | > 100 µM (inactive) | > 100 µM (inactive) | > 100 µM (inactive) | 65.5 µM (inactive) | > 100 µM (inactive) | > 100 µM (inactive) | > 100 µM (inactive) | > 100 µM (inactive) |
| O=C1C=CC=C/C1=C1/SC(c2ccccc2)=C(O)N1c1ccccc1 | > 100 µM (inactive) | – | > 100 µM (inactive) | – | > 100 µM (inactive) | – | > 100 µM (inactive) | > 100 µM (inactive) | > 100 µM (inactive) | > 100 µM (inactive) | > 100 µM (inactive) | > 100 µM (inactive) | > 100 µM (inactive) | – | > 100 µM (inactive) | > 100 µM (inactive) | > 100 µM (inactive) | > 100 µM (inactive) | > 100 µM (inactive) | > 100 µM (inactive) |
| CC1C(=O)N(c2ccccc2)NC12CCCc1ccccc12 (centres undefined) | > 100 µM (inactive) | > 100 µM (inactive) | > 100 µM (inactive) | > 100 µM (inactive) | > 100 µM (inactive) | > 100 µM (inactive) | – | > 100 µM (inactive) | > 100 µM (inactive) | > 100 µM (inactive) | > 100 µM (inactive) | > 100 µM (inactive) | > 100 µM (inactive) | > 100 µM (inactive) | > 100 µM (inactive) | > 100 µM (inactive) | > 100 µM (inactive) | > 100 µM (inactive) | > 100 µM (inactive) | > 100 µM (inactive) |
| COC1OC(CS(=O)(=O)O)C(O)C(O)C1O (centres undefined) | > 100 µM (inactive) | > 100 µM (inactive) | – | > 100 µM (inactive) | > 100 µM (inactive) | > 100 µM (inactive) | – | > 100 µM (inactive) | > 100 µM (inactive) | – | > 100 µM (inactive) | > 100 µM (inactive) | > 100 µM (inactive) | > 100 µM (inactive) | > 100 µM (inactive) | > 100 µM (inactive) | > 100 µM (inactive) | > 100 µM (inactive) | – | > 100 µM (inactive) |
| C/C(=C1\N=C(c2ccccc2)OC1=O)c1ccccc1 | > 100 µM (inactive) | > 100 µM (inactive) | > 100 µM (inactive) | > 100 µM (inactive) | – | > 100 µM (inactive) | – | > 100 µM (inactive) | > 100 µM (inactive) | > 100 µM (inactive) | > 100 µM (inactive) | > 100 µM (inactive) | > 100 µM (inactive) | > 100 µM (inactive) | > 100 µM (inactive) | > 100 µM (inactive) | > 100 µM (inactive) | > 100 µM (inactive) | > 100 µM (inactive) | > 100 µM (inactive) |
